Source: patent publication US20260256753A1, “USE OF AN OREXIN 2 RECEPTOR AGONIST FOR IMPROVING RESPIRATORY FUNCTION DURING SLEEP” (TAKEDA PHARMACEUTICAL COMPANY LIMITED, priority 2023, published 2026)

Assays:
diaphragm = assay: EMG recording of the diaphragm in anesthetized rats; type: in vivo, rat; settings: 10 min after administration, versus vehicle, FIG. 4
Experimental: Rats were anaesthetized with isoflurane (induction: 2%, maintenance: 1.5%). Anesthetic depth was assessed by the reflex responses to paw pinches. The tail vein was cannulated for intravenous drug administration. Rats were laid on disposable body warmers to prevent decrease in body temperature. The diaphragm was exposed, then two needle electrodes were implanted into costal diaphragm to monitor diaphragm EMG. After 10 min of baseline recording, vehicle (0.1% [w/v] Polysorbate 80 and 20% [w/v] Captisol solution) or Compound C was administered intravenously, and then EMG was recorded for 10 min. EMG was amplified using Bio amp system (ML132, AD Instruments), high-pass filtered (10 Hz), digitized, and recorded using PowerLab software (AD Instruments), and then rectified and integrated with a time constant decay (100 ms) using LabChart software (AD Instruments). Threshold levels for bursts were set using LabChart software (AD Instruments). Bursts were then automatically detected, and burst frequency was measured. Mean values in burst frequency during 2 min before vehicle or Compound C administration were used as control values, and those during 10 min after vehicle or Compound C administration were used to calculate percent of control values.

genioglossus muscle = assay: EMG recording of the genioglossus muscle in anesthetized rats; type: in vivo, rat; settings: 1 mg/kg intravenous, 10 min after administration, versus vehicle, FIG. 5
Experimental: EMG recording of the genioglossus muscle was conducted as described previously (G. H. Zhang, et al.) with slight modifications. Rats were anaesthetized with urethane (2.0 g/kg, intraperitoneal injection). Anesthetic depth was assessed by the reflex responses to paw pinches. The tail vein was cannulated for intravenous drug administration. Each rat was laid on a servo-controlled electric heating pad. The body temperature of the rat was monitored with a rectal probe of the pad and kept at around 37° C. […] After 10 min of baseline recording, vehicle (0.1% [w/v] Polysorbate 80 and 20% [w/v] Captisol solution) or Compound C was administered intravenously and then EMG was recorded for 10 min. EMG was amplified 1,000-fold, band-pass filtered (100-5,000 Hz) using Microelectrode AC Amplifier (Model 1800; A-M systems, Carlsborg, WA, USA), digitized using AD converter (Power 1401; Cambridge Electronic Design, Cambridge, UK), recorded using Spike2 software (Cambridge Electronic Design), and then rectified and integrated with a time constant decay (100 ms) using LabChart software (AD Instruments). […] Bursts were then automatically detected, and burst amplitude was measured. […]

OX2R [1] = biological target: T1, OX2R (Homo sapiens, UniProt O43614); settings: OX2R-expressed recombinant cells; cited from earlier work
T1 sequence (O43614 1-444): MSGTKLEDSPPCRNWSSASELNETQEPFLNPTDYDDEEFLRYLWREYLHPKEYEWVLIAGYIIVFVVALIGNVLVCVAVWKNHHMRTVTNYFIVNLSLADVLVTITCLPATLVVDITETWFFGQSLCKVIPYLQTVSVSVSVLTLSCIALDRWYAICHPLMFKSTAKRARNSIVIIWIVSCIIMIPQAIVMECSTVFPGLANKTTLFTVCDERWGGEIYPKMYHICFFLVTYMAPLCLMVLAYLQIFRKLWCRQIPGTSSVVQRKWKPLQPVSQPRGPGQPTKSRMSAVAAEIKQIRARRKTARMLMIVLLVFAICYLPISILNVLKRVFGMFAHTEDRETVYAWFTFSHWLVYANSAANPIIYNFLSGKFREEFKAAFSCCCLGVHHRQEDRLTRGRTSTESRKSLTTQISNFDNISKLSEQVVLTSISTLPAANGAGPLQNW

OX2R [2] = biological target: T1, OX2R; settings: OX2R-expressed recombinant cells; cited from earlier work; remark: listed apart in the source

Row | SMILES | burst frequency of the diaphragm (diaphragm; 1 mg/kg intravenous) | burst frequency of the diaphragm (diaphragm; 3 mg/kg intravenous) | burst amplitude of the genioglossus muscle (genioglossus muscle) | calcium mobilization (OX2R [1]) | recruitment of β-arrestins (OX2R [2])
1 | CC(C)(O)C(=O)N1CC(F)(F)[C@H](NS(C)(=O)=O)[C@@H]1Cc1cccc(-c2cc(F)cc(F)c2)c1F [Compound C, N-{(2S,3R)-4,4-difluoro-1-(2-hydroxy-2-methylpropanoyl)-2-[(2,3′,5′-trifluoro[1,1′-biphenyl]-3-yl)methyl]pyrrolidin-3-yl}methanesulfonamide] | significantly increased burst frequency | significantly increased burst frequency | significantly increased burst amplitude | – | –
2 | COC(=O)N1CCC[C@H](NS(C)(=O)=O)[C@@H]1CO[C@H]1CC[C@@H](c2ccccc2)CC1 (relative stereo) [Compound A, methyl(2R,3S)-3-((methylsulfonyl)amino)-2-(((cis-4-phenylcyclohexyl)oxy)methyl) piperidine-1-carboxylate] | – | – | – | increase calcium mobilization | promote recruitment of β-arrestins
